Measurements from patent US11845741B2, “Pilocarpine ionic liquids for treatment of glaucoma” (VIRGINIA COMMONWEALTH UNIVERSITY INTELLECTUAL PROPERTY …, priority 2020, dated 2023).
“Also recorded” adds a separate entry of the source. Structures can show the parent of a compound that is named as a salt.

What was measured:
[1] = Stability test: pH of aqueous solutions over 24 h; format: physicochemical; conditions: for pH of freshly prepared solution: 0 h
Procedure: (§1) Stability test. Fresh water solutions of Pilo, PiloHCl, and [Pilo-OEG]Cl (5 mM) were prepared and their pH at 0, 0.75, 4, 8, and 24 h was measured with a pH meter ([…]). The samples at 0 and 24 h were further analyzed with LC-MS/MS using a Surveyor Plus HPLC System and triple stage quadrupole (TSQ) Quantum Ultra Mass Spectrometer (Thermo Fisher Scientific, USA) equipped with an auto-sampler and electrospray ionization (ESI) source. Separation was carried out on an Hypersil Gold column (150 mm×2.1 mm, […], Thermo) maintained at 25° C. The mobile phase consisted of 0.1% (v/v) formic acid water phase (A) and methanol phase (B). The gradient elution program was as follows: 95% of A at 0-5 min, and back to 95% of A at 23.1 min, re-conditioning of the column for 8 min. The flow rate was 0.2 mL/min A capillary temperature of 350° C., spray voltage of 4500 V, sheath gas of 30 arb, and auxiliary gas of 10 arb were maintained as the optimal instrument conditions. Unit resolution was used for Q1 (FWHM 0.7). Nitrogen was used as both sheath gas and auxiliary gas.

[2] = Stability test: LC-MS/MS analysis of aqueous solutions at 0 and 24 h; format: physicochemical; conditions: water solution, 5 mM
Procedure: as §1

[3] = system: HCE-2 human corneal epithelial cells; assay: Cytotoxicity assessment, WST-1 assay; format: cell-based; conditions: HCE-2 cells, 24 h, 1 mM to 50 mM
Procedure: (§2) Cytotoxicity assessment. HCE-2 human corneal epithelial cells were seeded in a 96-well plate at a density of 1×10^4 cell/well. After attachment, the cells were incubated with various concentrations of Pilo, PiloHCl and [Pilo-OEG]Cl for 24 h and cell viability was determined by using WST-1 assay. The medium for HCE-2 (ATCC CRL-11135, epithelial Adenovirus 12-SV40 hybrid transformed) was Keratinocyte-serum free medium supplemented with 0.05 mg/mL of bovine pituitary extract (BPE), 5 ng/mL of epidermal growth factor (EGF), 500 ng/mL of hydrocortisone and 0.005 mg/mL of insulin. The cytotoxicity of Pilo and [Pilo-OEG]Cl to NIH3T3 fibroblast cells was also tested.

[4] = Ex vivo corneal permeation, Franz diffusion cell; format: in vitro ADME; conditions: rabbit cornea; for amount permeated through the cornea within 4 h: 200 μL of 27 mM in donor chamber
Procedure: Ex vivo corneal permeation studies. Corneas were extracted from fresh rabbit eyes and mounted immediately in a Franz diffusion cell system with the epithelial surface facing the donor chamber. In each test, Pilo, PiloHCl, or [Pilo-OEG]Cl (200 μL, 27 mM) was loaded to the donor chamber. The receiver chamber was filled with 5 mL of PBS. At pre-determined time points up to 4 h, an aliquot of 1 mL from the receiver chamber was collected via syringe and analyzed with UV-Vis spectrophotometer (U-3010, Hitachi). Fresh PBS (1 mL) was added to the receiver chamber following each sampling. All the experiments were conducted in triplicate. The permeability coefficient, P, was then determined based on the following equation: [formula] where dQ/dt is the steady-state slope of a cumulative flux curve (in this study, the data in 1 h is selected for dQ/dt calculation), C is drug concentration in the donor chamber, and A is the effective cross-sectional area (0.629 cm^2) available for diffusion.^22

[5] = literature value; cited from earlier work
[6] = Cytotoxicity assessment, WST-1 assay; format: cell-based, human; conditions: human, HCE-2 human corneal epithelial cells; HCE-2 cells, 24 h incubation, WST-1
Procedure: as §2

[7] = system: intraocular pressure (IOP); assay: In vivo IOP-lowering efficacy assessment; design: species or system normotensive adult Brown Norway female rats; conditions: for IOP reduction after second dose: second topical dose applied 4 hours after the first; for average IOP reduction after first dose: topical 2×5 μL, 82 mM pilocarpine equivalent, 45 min post-administration, n=4; for time of highest IOP reduction post-administration: topical instillation
Procedure: In vivo efficacy assessment. Normotensive adult Brown Norway female rats (Charles River Laboratories), 8 months old, were used in this work. The rats were given free access to food and water, 12 hours light and dark cycle in a temperature-controlled room (18-24° C.). The procedures conducted were approval by Virginia Commonwealth University IACUC. Rats were randomly grouped to two groups of four (n=4). The right eye of each rat was instilled with PiloHCl or [Pilo-OEG]Cl PBS solution (2×5 μL, 82 mM pilocarpine equivalent), one dose at 8:00 am and the second dose at 12:00 pm. The IOPs of both eyes were measured at 8:00 am (before dosing), 8:45 am, 12:00 pm (before the second dosing), 12:45 pm, and 16:00 pm using Icare TONOLAB tonometer TV02.

In the case of `CC[C@@H]1C(=O)OC[C@@H]1Cc1cncn1C` [Pilo, Pilocarpine], the “pH of freshly prepared solution” value ([1]; water solution, 5 mM) is reported as 9.2, the “pH of solution at 8 h” value ([1]; water solution, 5 mM, 8 h) is reported as 8.7 and the “pH of solution at 24 h” value ([1]; water solution, 5 mM, 24 h) is reported as 8.2. The pKa ([1]; water solution, calculated/estimated from pH at 0 h, 5 mM in water, read-out: dissociation constant (pKa)) was 7.28, the “degradation products formed in solution (LC-MS)” value (shortened to “degradation products formed”) [2] was “isopilocarpine formed (eluted at 2.02 min, m/z=209.06) and further hydrolyzed into acids” and the cytotoxicity / cytocompatibility [3] was “cytocompatible”. The “amount permeated through the cornea within 4 h” value ([4]; 4 h) was 27.8±14.7%, the permeability coefficient ([4]; dQ/dt from data in 1 h) was 6.6 ×10⁻⁶ cm/s and the “pKa reported in the Merck Index” value [5] was 7.15.

In the case of `CC[C@@H]1C(=O)OC[C@@H]1Cc1cncn1C` [PiloHCl, pilocarpine hydrochloride], the “dissociation constant (pKa)” value ([1]; calculated/estimated from pH at 0 h, 5 mM in water, hydrochloride) is reported as 8.34, the “pH of freshly prepared solution” value ([1]; water solution, 5 mM, hydrochloride) is reported as 5.3 and the “pH stability of aqueous solution within 24 h” value ([1]; water solution, 5 mM, 24 h) is reported as “remain relatively stable”. For the same compound, the “degradation products formed” value ([2]; hydrochloride) was “Isopilocarpine also formed”, the IC50 at 24 h [6] was 25 mM and the cytotoxicity / cytocompatibility ([3]; hydrochloride) was “strong dose-dependent cytotoxicity”. The “amount permeated through the cornea within 4 h” value ([4]; 4 h, hydrochloride) was 8.1±1.8%, the permeability coefficient ([4]; dQ/dt from data in 1 h, hydrochloride) was 1.5 ×10⁻⁶ cm/s and the “IOP reduction after second dose” value [7] was about 1 mmHg. The “average IOP reduction after first dose” value [7] was 1.25 mmHg and the “time of highest IOP reduction post-administration” value [7] was 45 min.

For `CC[C@@H]1C(=O)OC[C@@H]1Cc1c[n+](CCOCCOCCO)cn1C.[Cl-]` [[Pilo-OEG]Cl], the “pH of freshly prepared solution” value ([1]; water solution, 5 mM) was 7.3, the “pH stability of aqueous solution within 24 h” value ([1]; water solution, 5 mM, 24 h) was “remain relatively stable” and the “degradation products formed” value [2] was “neither isopilocarpine or pilocarpine and isopilocarpine acids formed”. For the same compound, the cytotoxicity / cytocompatibility [3] was “did not show apparent toxicity; also recorded: cytocompatible”, the “permeability coefficient, fold higher than Pilo” value [4] was 1 fold and the “permeability coefficient, fold higher than PiloHCl” value [4] was 8 fold. For the same compound, the “amount permeated through the cornea within 4 h” value ([4]; 4 h) was 51.6±8.1%, the “amount permeated, fold higher than PiloHCl” value ([4]; 4 h) was 5 fold and the Papp at 1 h, 27 mM ([4]; rabbit, dQ/dt from data in 1 h, read-out: permeability coefficient) was 13 ×10⁻⁶ cm/s. For the same compound, the “IOP reduction, fold versus PiloHCl” value ([7]; first dose, statistical significance not established) was 2 fold, the “IOP reduction after second dose” value [7] was 2.625 mmHg and the “average IOP reduction after first dose” value [7] was 2.75 mmHg. The “time of highest IOP reduction post-administration” value [7] was 45 min.
